# Key:
# NF-κ B activation = assay: Inhibitory activity of NF-κB activation, luciferase reporter assay under TNF-α stimulation in HepG2; assay type: cell-based, human; conditions: HepG2, TNF-α 40 ng/ml, 4 hours; for inhibition at 1 µg/mL / inhibition at 10 µg/mL: Homo sapiens, read-out: Inhibitory rate against NF-κB activation (%)
# Method in brief: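 HepG2 cells transiently transfected with luciferase reporter carrying five tandem NF-κB binding sites, then stimulated with TNF-α (40 ng/ml) ± compound for 4 hours. Luminescent luciferase activity measured; inhibition expressed relative to activity without compound.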
# AP-1 activation [1] = assay: Inhibition against AP-1 activation by TNF α stimulation, luciferase reporter assay in HeLa; assay type: cell-based, human; conditions: TNF-α 40 ng/ml, 4 hours; for inhibition at 1 µg/mL / inhibition at 10 µg/mL: Homo sapiens, read-out: Inhibitory rate against AP-1 activation(%)
# Description: Measurement of Inhibition Against AP-1 Activation by TNF α Stimulation
# Using a transfection reagent(Effectene; QIAGEN), the human uterine cancer cell strain HeLa was transfected with a plasmid(pAP-1-Luc Reporter Plasmid: […]) integrated with an oligonucleotide having seven tandem copies of AP-1 binding sequences(TGACTAA) on an upstream region of firefly luciferase gene(Luc) according to the QIAGEN's protocol, and the cells were incubated for 6 to 24 hours. After addition of TNF-α (40 ng/ml) in the presence or absence of a test compound, the cells were incubated for 4 hours, and intracellular luciferase activity was measured by using PicaGene LT(TOYO INK MFG Co., Ltd.) and a chemical luminescence measurement apparatus([…]luor Plus; TECAN). The inhibitory ratio was measured as a ratio relative to the value of the luciferase activity in the absence of the test compound.
# AP-1 activation [2] = assay: Inhibition against AP-1 activation by forced expression of MEKK-1, luciferase reporter assay in HepG2; assay type: cell-based, human; conditions: HepG2, MEKK-1 forced expression, 24 hours
# Description: Measurement of Inhibition Against AP-1 Activation by Forced Expression of MEKK-1
# Using a transfection reagent (Effectene; QIAGEN), the human hepatoma cell strain HepG2 was cotransfected with a plasmid (pAP-1-Luc Reporter Plasmid: […]) integrated with an oligonucleotide having seven tandem copies of AP-1 binding sequences (TGACTAA) on an upstream region of firefly luciferase gene (Luc) and the MEKK-1 expression plasmid (pFCMEKK: […]) according to the QIAGEN's protocol, and the cells were incubated for 20 to 24 hours. Then the cells were incubated in the presence or absence of a test compound for 24 hours, and then intracellular luciferase activity was measured by using PicaGene LT (TOYO INK MFG Co., Ltd.) and a chemical luminescence measurement apparatus ([…]luor Plus; TECAN). The inhibitory ratio was measured as a ratio relative to the value of the luciferase activity in the absence of the test compound.
Structure (SMILES),Inhibitory rate against NF-κB activation (%) (NF-κ B activation; Drug concentration at 1 μg/mL),Inhibitory rate against NF-κB activation (%) (NF-κ B activation; Drug concentration at 10 μg/mL),Inhibitory rate against AP-1 activation(%) (AP-1 activation [1]; Drug concentration at 10 μg/mL),inhibition at 1 µg/mL (NF-κ B activation; Drug concentration at 1 μg/mL),other results
O=C(Nc1cc(C(F)(F)F)cc(C(F)(F)F)c1)c1cc(Br)ccc1O [compound 6],94.9%,98.6%,91.2%,,Inhibitory rate against AP-1 activation(%) (AP-1 activation [1]; Drug concentration at 1 μg/mL): 48.4%
"O=C(Nc1cc(C(F)(F)F)cc(C(F)(F)F)c1)c1cc(I)ccc1O [compound 7, N-[3,5-bis(trifluoromethyl)phenyl]-2-hydroxy-5-iodobenzamide]",,,,86.6%,inhibition at 10 µg/mL (NF-κ B activation; Drug concentration at 10 μg/mL): 85.4%; inhibition at 1 µg/mL (AP-1 activation [1]; Drug concentration at 1 μg/mL): 25.4%; inhibition at 10 µg/mL (AP-1 activation [1]; Drug concentration at 10 μg/mL): 82.4%
O=C(Nc1cc(C(F)(F)F)cc(C(F)(F)F)c1)c1cc(/C=C/c2ccccc2)ccc1O [compound 19],95.5%,96.9%,33.9%,,
"O=C(Nc1cc(C(F)(F)F)cc(C(F)(F)F)c1)c1cc(C#Cc2ccccc2)ccc1O [compound 22, N-[3,5-bis(trifluoromethyl)phenyl]-2-hydroxy-5-(phenylethynyl)-benzamide]",,,,83.9%,inhibition at 10 µg/mL (NF-κ B activation; Drug concentration at 10 μg/mL): 97.1%; inhibition at 10 µg/mL (AP-1 activation [1]; Drug concentration at 10 μg/mL): 44.1%
O=C(Nc1cc(C(F)(F)F)cc(C(F)(F)F)c1)c1cc(-c2ccccc2)ccc1O [compound 23],91.8%,96.8%,60.9%,,Inhibitory rate against AP-1 activation(%) (AP-1 activation [1]; Drug concentration at 1 μg/mL): 18.1%
"O=C(Nc1cc(C(F)(F)F)cc(C(F)(F)F)c1)c1cc(C(=O)N2CCC(Cc3ccccc3)CC2)ccc1O [compound 40, N-[3,5-Bis(trifluoromethyl)phenyl]-2-hydroxy-5-(4-benzylpiperidine-1-carbonyl)-benzamide]",,,,44.9%,inhibition at 10 µg/mL (NF-κ B activation; Drug concentration at 10 μg/mL): 96%; melting point: 179 to 180 °C
O=C(Nc1cc(C(F)(F)F)cc(C(F)(F)F)c1)c1cc(Cl)cnc1O [compound 75],58.1%,82.2%,56.7%,,Inhibitory rate against AP-1 activation(%) (AP-1 activation [1]; Drug concentration at 1 μg/mL): 33.3%
"CC(=O)Oc1ccccc1C(=O)Nc1cc(Cl)cc(Cl)c1 [compound 120, 2-acetoxy-N-(3,5-dichlorophenyl)benzamide]",,,,88.6%,inhibition at 10 µg/mL (NF-κ B activation; Drug concentration at 10 μg/mL): 97.5%; melting point: 218 to 219 °C
O=C(Nc1nc(C(F)(F)F)c(Br)s1)c1cc(Br)ccc1O [compound 187],85.3%,94.4%,49.9%,,
"CCc1sc(NC(=O)c2cc(Br)ccc2O)nc1C(C)(C)C [compound 195, 5-Bromo-N-{4-[(1,1-dimethyl)ethyl]-5-ethylthiazol-2-yl}-2-hydroxybenzamide]",,,,90.5%,inhibition at 10 µg/mL (NF-κ B activation; Drug concentration at 10 μg/mL): 98.1%; Inhibitory ratio of AP-1 activation(%) (AP-1 activation [2]; Drug concentration 1 μM): 91.2%; Inhibitory ratio of AP-1 activation(%) (AP-1 activation [2]; Drug concentration 1 μg/mL): 95.5%
"CC(C)(C)C(=O)c1sc(NC(=O)c2cc(Cl)ccc2O)nc1C(C)(C)C [compound 199, 5-Chloro-N-{4-[(1,1-dimethyl)ethyl]-5-[(2,2-dimethyl)propionyl]thiazol-2-yl}-2-hydroxybenzamide]",,,,96.4%,inhibition at 10 µg/mL (NF-κ B activation; Drug concentration at 10 μg/mL): 98.4%; Inhibitory ratio of AP-1 activation(%) (AP-1 activation [2]; Drug concentration 1 μg/mL): 70.6%
"O=C(Nc1nc(-c2ccccc2)c(C(=O)O)s1)c1cc(Br)ccc1O [compound 217, 2-(5-bromo-2-hydroxybenzoyl)amino-4-phenylthiazole-5-carboxylic acid]",,,,,inhibition at 1 µg/mL (AP-1 activation [1]; Drug concentration at 1 μg/mL): 21.7%; inhibition at 10 µg/mL (AP-1 activation [1]; Drug concentration at 10 μg/mL): 55.3%
"O=C(Nc1nc(-c2cccc(C(F)(F)F)c2)cs1)c1cc(Cl)ccc1O [compound 265, 5-Chloro-2-hydroxy-N-{4-[3-(trifluoromethyl)phenyl]thiazol-2-yl}benzamide]",,,,> 99.9%,
"O=C(Nc1nc(-c2c(F)c(F)c(F)c(F)c2F)cs1)c1cc(Cl)ccc1O [compound 266, 5-Chloro-2-hydroxy-N-[4-(2,3,4,5,6-pentafluorophenyl)thiazol-2-yl]benzamide]",,,,> 99.9%,
O=C(Nc1cc(C(F)(F)F)ccc1C(F)(F)F)c1cc(Br)ccc1O [compound 268],87.1%,98.4%,,,

# Continued, in another order:
Inhibitory rate against NF-κB activation (%) (NF-κ B activation; Drug concentration at 1 μg/mL),Inhibitory rate against NF-κB activation (%) (NF-κ B activation; Drug concentration at 10 μg/mL),Inhibitory rate against AP-1 activation(%) (AP-1 activation [1]; Drug concentration at 10 μg/mL),Structure (SMILES),inhibition at 1 µg/mL (NF-κ B activation; Drug concentration at 1 μg/mL),other results
81.7%,92.9%,51.5%,O=C(Nc1cc(C(F)(F)F)cc(C(F)(F)F)c1)c1cc(-c2ccsc2)ccc1O [compound 29],,
69.9%,96.0%,,"CC(=O)Nc1cc(O)c(C(=O)Nc2cc(C(F)(F)F)cc(C(F)(F)F)c2)cc1Cl [compound 50, 4-Acetylamino-N-[3,5-bis(trifluoromethyl)phenyl]-5-chloro-2-hydoxybenzamide]",,Inhibitory ratio of AP-1 activation(%) (AP-1 activation [2]; Drug concentration 1 μM): 90.7%; Inhibitory ratio of AP-1 activation(%) (AP-1 activation [2]; Drug concentration 1 μg/mL): 99.4%
94.2%,97.0%,67.7%,O=C(Nc1cc(Cl)cc(Cl)c1)c1cc(F)ccc1O [compound 124],,
84.5%,96.8%,74.8%,O=C(Nc1cc(Cl)cc(Cl)c1)c1cc(Cl)ccc1O [compound 125],,Inhibitory rate against AP-1 activation(%) (AP-1 activation [1]; Drug concentration at 1 μg/mL): 22.7%
77.1%,92.8%,83.8%,O=C(Nc1cc(Cl)cc(Cl)c1)c1cc(Br)ccc1O [compound 126],,Inhibitory rate against AP-1 activation(%) (AP-1 activation [1]; Drug concentration at 1 μg/mL): 39.3%
85.4%,97.1%,75.4%,O=C(Nc1cc(Cl)cc(Cl)c1)c1cc(I)ccc1O [compound 127],,
,67.0%,29.7%,O=C(Nc1nc(-c2ccccc2)c(-c2ccccc2)s1)c1cc(Br)ccc1O [compound 211],,
34.6%,,33.5%,CCOC(=O)c1sc(NC(=O)c2cc(-c3ccccc3)ccc2O)nc1-c1ccccc1 [compound 225],,
28.6%,,,Cc1ccc(C(=O)c2ccccc2)c(NC(=O)c2cc(Cl)ccc2O)c1 [compound 267],,
